These results are taken from PMC4817054, “Expansion of a bitter taste receptor family in a polyphagous insect herbivore” (Scientific Reports, 2016).

Each structure is given as a SMILES string.

The assay relates to HarmGR195. The conditions noted are these: agonist; HarmGR195 expressed alone; SEM, N = 3; HBSS.

Turning to `O=C(O)[C@@H]1CCCN1` [proline], the EC50 stood at 43 ± 7 mM.

A word on the EC50: it is the midpoint of the concentration-response curve. Read a low EC50 as higher potency in that assay.
